Reference: US5340929A, “Trisazo dye and dye composition containing the same” (Orient Chemical Industries, Ltd., priority 1992, dated 1994)
Read-outs that look alike come from different tables or passages of the source.

Assays:
[1] = prior art statement, background; cited from earlier work
[2] = prior art statement, background; cited from earlier work; remark: listed apart in the source
[3] = system: strains TA98; conditions: cited from earlier work
[4] = Water resistance of writing (drawdown paper dipped in tap water, reflection density); assay type: physicochemical; conditions: drawndown paper, 3% dye solution, air-dried one day
Method: Light resistance: The resulting dye was dissolved in a 5% aqueous diethylene glycol solution to obtain a 3% dye solution. […] A degree of discoloration was compared with that before testing.
Water resistance: The drawndown paper was air-dried for one day and dipped in tap water.
A: Reflection density is more than 70% of that before testing.
B: Reflection density is 50 to 70% of that before testing.
C: Reflection density is less than 50% that before testing.

[5] = system: strains TA98; assay type: cell-based
Method: Further, the trisazo dye of the present invention is a nontoxic trisazo dye which gives negative results in a back mutation test using an organism, which is generally known as a test method for evaluating toxicity, i.e. AMES test (mutation test).
Evaluation method of Ames test
Regarding various specimen solutions respectively containing a trisazo dyes obtained in Examples 1 to 8 of the present invention and dyes of Comparative Examples 1 to 3, the number of mutant colonies was determined using strains TA98. 2. When the ratio is less than 2, it is "negative" and, when the ratio is more than 2, it is "positive", and the results are shown in Table. 1.

[6] = Hue of dye / writing; assay type: physicochemical

Row | Compound | Light resistance of aqueous ink [1] | Water resistance of aqueous ink [2] | Ames test result [3] | Writing evaluation: Water resistance [4] | Ames test: ratio of the number of colonies to control ([5]; TA98, S-9 (+), 20 μg/plate) | Ames test: ratio of the number of colonies to control ([5]; TA98, S-9 (+), 78 μg/plate) | Ames test: ratio of the number of colonies to control ([5]; TA98, S-9 (+), 313 μg/plate) | Ames test: ratio of the number of colonies to control ([5]; TA98, S-9 (+), 1250 μg/plate) | Ames test: ratio of the number of colonies to control ([5]; TA98, S-9 (+), 5000 μg/plate) | Ames test: ratio of the number of colonies to control ([5]; TA98, S-9 (-), 20 μg/plate) | Ames test: ratio of the number of colonies to control ([5]; TA98, S-9 (-), 78 μg/plate) | Ames test: ratio of the number of colonies to control ([5]; TA98, S-9 (-), 313 μg/plate) | Ames test: ratio of the number of colonies to control ([5]; TA98, S-9 (-), 1250 μg/plate) | Ames test: ratio of the number of colonies to control ([5]; TA98, S-9 (-), 5000 μg/plate) | Hue [6] | Hue ([6]; listed as Comp. Example 2) | Ames test result ([3]; prior art statement, background) | Hue ([6]; listed as Comp. Example 3)
1 | Nc1cc2c(O)c(N=Nc3ccc(N=Nc4ccc(S(=O)(=O)[O-])cc4)c4ccc(S(=O)(=O)[O-])cc34)c(S(=O)(=O)[O-])cc2cc1S(=O)(=O)[O-].[Na+].[Na+].[Na+].[Na+] [Food Black 2] | poor | poor |  |  |  |  |  |  |  |  |  |  |  |  |  |  |  | 
2 | Nc1ccc(N=Nc2ccc(N=Nc3c(S(=O)(=O)[O-])cc4cc(S(=O)(=O)[O-])c(N=Nc5ccc(N=Nc6ccc(N)cc6N)cc5)c(O)c4c3N)cc2)c(N)c1.[Na+].[Na+] [compound 2, C.I. Direct Black 19, reference compound] |  |  | false positive or positive | A (Reflection density is more than 70% of that before testing.) | 8.33 | 24.2 | 75.0 | 52.8 | 4.00 | 0.92 | 0.88 | 1.48 | 2.24 | 2.84 | Yellowish | yellowish black |  | 
3 | Cc1cc(-c2ccc(N=Nc3c(S(=O)(=O)[O-])cc4cc(S(=O)(=O)[O-])c(N=Nc5ccccc5)c(O)c4c3N)c(C)c2)ccc1N=Nc1ccc(N)cc1N.[Na+].[Na+] [compound 3, C.I. Direct Black 154, reference compound] |  |  |  | B (Reflection density is 50 to 70% of that before testing.) | 1.92 | 2.35 | 2.50 | 1.50 | 0.85 | 0.72 | 0.68 | 0.84 | 0.76 | 0.96 | Greenish |  | false positive or positive | greenish black
